Earlier results in patent US20230012071A1, “MODIFIED RELEASE PHARMACEUTICAL COMPOSITIONS OF RIOCIGUAT” (ZYDUS LIFESCIENCES LIMITED, priority 2019, published 2023).

Conditions: existing marketed immediate release tablet

- absolute bioavailability: about 94%
- time at which peak plasma concentrations are observed following drug administration: ≤ 1.5 h
Compound: COC(=O)N(C)c1c(N)nc(-c2nn(Cc3ccccc3F)c3ncccc23)nc1N
